Tested on: Plasmodium falciparum
Assay: GSK_TCMDC: Inhibition of Plasmodium falciparum 3D7 in whole erythrocytes, using parasite LDH activity as an index of growth.
Assay type: functional, organism-based
Conditions: Plasmodium falciparum, 3D7

Row | Compound | XC50 [nM]
1 | O=C(Cn1c(CCc2cccc(F)c2F)cc(=O)c2ccccc21)N(Cc1ccc(-c2ccc(C(F)(F)F)cc2)cc1)C1CCN(CCO)CC1 | 1320
2 | O=C(Nc1ccccc1O)c1ccc(Oc2cccc(C(=O)Nc3ccccc3O)c2)cc1 | 799
3 | CS(=O)(=O)Nc1ccc2[nH]cc(C3CCN(CCCCCNC(=O)/C=C/c4ccc(Cl)c(Cl)c4)CC3)c2c1 | 736
4 | O=C(/C=C/c1ccc(Cl)c(Cl)c1)NCCCCCN1CCC(c2c[nH]c3cc(O)ccc23)CC1 | 745
5 | CCCCCc1ccc(N2C(N)=NC(N)=NC2(C)C)cc1 | 131
6 | Cc1cc(=NN=Cc2ccc(Cl)cc2)c2ccc(F)cc2[nH]1 | 757
7 | CCOC(=O)C1=C(C)N=c2sc(=Cc3cc(Cl)ccc3O)c(=O)n2C1c1ccc2c(c1)OCO2 (stereo not given) | 712
8 | Cc1cc(-c2cccc(CNCc3ccc(F)cc3)c2)ccc1S(=O)(=O)NCCN1CCCC1 | 732
9 | CCN(C)C(=O)n1ncc2c3c(N)nc(N)nc3ccc21 | 176
10 | Cc1cnc2ccc(NS(=O)(=O)c3ccc4c(Cl)cccc4c3)cc2c1N1CCNCC1 | 751
11 | CC1(C)NC(N)=NC(=N)N1OCC1CCCCC1 | 3.2
12 | O=C(/C=C/c1ccc(Cl)c(Cl)c1)N1CCC(CCN2CCC(c3c[nH]c4ccncc34)CC2)CC1 | 1140
13 | CCN(CC)c1nc(-c2ccccc2)cc(-c2ccccc2)c1C#N | 450
14 | Cc1cccc(OCC2CCN(c3ncc(C(=O)NC4CC4)cc3Cl)CC2)c1 | 1330
15 | CN(C)Cc1cc(Nc2ccnc3cc(Cl)ccc23)ccc1O | 9.49
16 | N=C(N)Nc1nc(-c2ccc(NCc3ccc(CNc4cccc(-c5csc(NC(=N)N)n5)c4)cc3)cc2)cs1 | 310
17 | CCc1cn2c3c(cc(C(=O)N[C@@H](Cc4ccccc4)[C@H](O)CNC4CCCCC4)cc13)N(C)S(=O)(=O)C2 | 87.1
18 | OC(CNc1ccnc(Nc2ccc(Cl)cc2)n1)c1ccccc1C(F)(F)F (stereo not given) | 788
19 | O=C(Cc1ccccc1)NC1(c2ccccc2)CCN(CCc2c[nH]c3ccc(F)cc23)CC1 | 878
20 | COc1ccc(CCN(C)CCCCNC(=O)c2ccc(NC(=O)c3ccc(Cl)cc3)cc2)c(OC)c1 | 921
21 | Cc1ccc(-c2nnc(Nc3ccc(CC(N)=O)cc3)c3ccccc23)cc1S(=O)(=O)NCC1CCCO1 (stereo not given) | 791
22 | COc1cc2nc(N3CCC(CNC(=O)c4ccc(-c5ccc(C(=O)N(C)C)cc5O)cc4)CC3)nc(N)c2cc1OC | 278
23 | O=C(NC1CCN(CC2(c3ccc(Cl)cc3)CCC2)CC1)c1cscn1 | 535
24 | OCC1CCN(Cc2cccc(-c3ccc(-c4nc5cc(F)ccc5[nH]4)cc3)c2)CC1 | 720

Row | Compound | XC50 [nM]
25 | CCCO[C@H](C(=O)OC)[C@@H](CC1Cc2ccccc2C1)C(=O)NCCC1=CCCCC1 | 970
26 | COCCOc1cccc(CN2CCC(c3cc4nc(C)cc(C(F)(F)F)n4n3)C2)c1 (stereo not given) | 1330
27 | Cc1cccc(NC(=O)NCc2ccccc2)n1 | 944
28 | N#Cc1ccc2c(c1)CCN(CCC1CCC(Nc3ncnc4ccccc34)CC1)C2 (stereo not given) | 635
29 | COc1ccc(CCN(C)CCOc2ccc(NC(=O)c3ccc([N+](=O)[O-])c4c(=O)c5ccccc5[nH]c34)cc2)cc1OC | 927
30 | COc1ccc2nccc(N3CCN(CCNCc4ccc5c(n4)NC(=O)CS5)CC3)c2n1 | 843
31 | Cc1ccc(NC(=N)Nc2ncccc2OCc2c(F)cccc2Cl)cc1 | 1190
32 | COc1ccc(Nc2nccc(N3CCC(NC(=O)Nc4cccc(OC)c4)C3)n2)cc1 (stereo not given) | 424
33 | CC(C)c1ccc(C=CC(=O)NC2CCC(CN3CCC(c4c[nH]c5ccccc45)CC3)CC2)cc1 (stereo not given) | 807
34 | CS(=O)(=O)c1ccc(-c2cncc(Nc3cccc([N+](=O)[O-])c3)c2)cc1 | 773
35 | CCCCCCCN1CCC(CC(=O)Nc2ccnc3ccc(OC)cc23)C(CC)C1 (stereo not given) | 593
36 | O=C(NC1CCCC1)c1ccc(N2CCC(NCc3cccc(C(F)(F)F)c3)CC2)cc1 | 1330
37 | COc1ccc(Nc2ncc3c(-c4cccc(NC(=O)CC(C)C)c4)c[nH]c3n2)cc1OC | 826
38 | Cc1cc(C)cc(OCC(O)CN(Cc2cc(Cl)cc(Cl)c2)C(=O)Nc2ccc(Cl)cc2)c1 (stereo not given) | 810
39 | CN1CCC(N2CCN(CCOc3cc(NC(=O)/C=C/c4ccccc4Cl)ccc3Br)CC2)CC1 | 360
40 | CN(C(=O)/C=C/c1cc(C(F)(F)F)ccc1F)C1CCN(CCCCCNC(=O)/C=C/c2ccc(Cl)c(Cl)c2)CC1 | 287
41 | Nc1nc(N)c2cc(NS(=O)(=O)c3ccc(-c4ccccc4)cc3)ccc2n1 | 699
42 | COc1cc2nc(Nc3ccc(N4CCOCC4)cc3)nc(N)c2cc1OC | 871
43 | Oc1ccc(CCNc2nc(NCc3ccccc3-c3ccccc3)nc(N3CCCNCC3)n2)cc1 | 877
44 | O=C(Nc1cccc(F)c1)NC1CCN(CCCCCNC(=O)C2CC2c2ccc(Cl)c(Cl)c2)CC1 (stereo not given) | 763
45 | COC(=O)c1cccc(C#CCCOCCCCCCNC[C@H](O)c2cc(Cl)c(N)c(Cl)c2)c1 | 771
46 | CC12CN3CC(C)(CN(C1)C3c1cc(Br)ccc1O)C2O (stereo not given) | 228
47 | CCCCc1cc(Cc2cnc(N)nc2N)cc(OC)c1OC | 1040
48 | O=C(c1ccc([N+](=O)[O-])o1)N1CCN(c2nc3c(F)cc(F)cc3s2)CC1 | 974

Row | Compound | XC50 [nM]
49 | COc1ccc2ccccc2c1C=NN=c1cc(C)[nH]c2cc(C(F)(F)F)ccc12 | 1040
50 | C/C=C1\CN2CC[C@H]1C[C@H]2[C@H](O)c1ccnc2ccc(O)cc12 | 601
51 | Cc1cc(-c2cccc(CNCc3ccccc3)c2)ccc1S(=O)(=O)NCCN1CCCC1 | 732
52 | COCC(C)n1c(SCC(=O)Nc2cc(C(F)(F)F)ccc2Cl)nc2ccccc2c1=O (stereo not given) | 130
53 | CCCN(Cc1ccc(C)cc1)Cc1cc(=O)c2cc(Cl)ccc2[nH]1 | 1050
54 | COc1ccccc1-c1ccc(C(=O)NCC2CCCN(Cc3cccc(C(F)(F)F)c3)C2)s1 (stereo not given) | 1540
55 | Cc1ccccc1C1CCN(C2CCC(NC(=O)/C=C/c3ccc(OC(F)(F)F)cc3)CC2)CC1 (stereo not given) | 857
56 | Cc1ccccc1C1CCN(C2CCC(NC(=O)c3cc4cc(C(C)C)ccc4[nH]3)CC2)CC1 (stereo not given) | 695
57 | Cc1cc(NC(=O)[C@H](CC2CCCCC2)Nc2ccc(C#N)c3ccccc23)ccc1F | 684
58 | Cc1cccc2nc(-c3cccc(-c4ccc(NC(=O)Nc5ccsc5)cc4)c3)[nH]c12 | 116
59 | O=S(=O)(NCCN1CCCC1)c1ccc(-c2cccc(CNCc3ccccc3)c2)s1 | 806
60 | CCSc1ccccc1COc1c(C)nc(N)nc1N | 68.4
61 | CNC(=O)Cc1ccc(C(=O)Nc2cccc(-c3cccc(-c4nc5cccc(C)c5[nH]4)c3)c2)cc1 | 530
62 | CC(=O)N(C)C1CCN(Cc2cccc(-c3ccc(-c4nc5cc(C(F)(F)F)ccc5[nH]4)cc3)c2)C1 (stereo not given) | 563
63 | CC(C)(O)CC(C)(C)c1cc(Cl)ccc1O | 455
64 | Nc1ncc(-c2cn[nH]c2)cc1-c1nc2ccc(Cl)cc2[nH]1 | 799
65 | CCCc1cc(Cc2cnc(N)nc2N)cc(OCCCCCC(=O)O)c1OC | 164
66 | O=C(Nc1ccc(-c2nc3ccccc3[nH]2)cc1)c1ccc(N2CCCC2)c([N+](=O)[O-])c1 | 678
67 | CCNc1cc(C(=O)N[C@@H](Cc2ccccc2)[C@H](O)CNCc2ccc3c(c2)OCCO3)cc(N2CCCCS2(=O)=O)c1 | 1350
68 | OC(c1ccccc1)C1CN(Cc2ccccc2)CCC1(O)c1ccccc1 (stereo not given) | 846
69 | CCCCCCCCn1c2c(c(=N)c3c1CCC3)CCC2 | 222
70 | CC(C)[C@H](NC(=O)c1ccc(O)c(-c2cccc(C(F)(F)F)c2)c1)C(=O)NC1CCCc2ccccc21 (stereo not given in full) | 930

From ChEMBL document CHEMBL1157539, “Thousands of chemical starting points for antimalarial lead identification” (Nature, 2010)
